Measured values as given in US5843941A, “Ras farnesyl transferase inhibitors” (Genentech, Inc., priority 1994, dated 1998).
Read-outs that look alike come from different tables or passages of the source.

Target: CAAX farnesyltransferase (Rattus norvegicus, UniProt Q02293+Q04631)
Test: In vitro inhibition of CAAX farnesyltransferase
Assay type: biochemical
Set-up: purified to homogeneity from rat brain homogenates; from tissue; host or cells: rat brain; alternatively recombinant enzyme from a baculovirus expression system
Details: Table D
Method: All compounds were tested for in vitro inhibition of CAAX protein farnesyltransferase. […] Alternatively, recombinant CAAX protein farnesyltransferase was also used in this assay. […] Seventy-two hrs after infection, the cells were harvested and disrupted and the enzyme isolated by chromatography on Q-Sepharose.
After incubation for 30 min at 37° C., the amount of [3H]famesyl group transferred to p21H-ras was measured by precipitation with SDS/trichloroacetic acid, filtration onto nitrocellulose, and scintillation counting.
Structures of the compounds tested are reproduced below. Compound numbers also refer to example numbers above.

[1] = diastereomer A, read-out: EC50 (μM) "A"
[2] = diastereomer B, read-out: EC50 (μM) "B"

Sequence of CAAX farnesyltransferase (Q02293 whole entry, one chain of several): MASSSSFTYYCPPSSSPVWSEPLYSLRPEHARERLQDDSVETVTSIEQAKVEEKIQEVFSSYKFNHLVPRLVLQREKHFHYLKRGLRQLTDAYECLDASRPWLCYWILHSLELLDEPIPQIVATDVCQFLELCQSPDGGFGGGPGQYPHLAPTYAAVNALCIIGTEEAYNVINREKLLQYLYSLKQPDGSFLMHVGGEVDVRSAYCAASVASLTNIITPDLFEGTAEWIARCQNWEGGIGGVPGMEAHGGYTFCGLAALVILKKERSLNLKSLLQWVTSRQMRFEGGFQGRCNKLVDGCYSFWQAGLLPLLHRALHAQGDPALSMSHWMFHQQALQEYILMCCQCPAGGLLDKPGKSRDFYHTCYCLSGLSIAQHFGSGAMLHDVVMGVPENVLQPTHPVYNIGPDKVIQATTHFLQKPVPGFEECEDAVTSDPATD

Row | SMILES | EC50 [1] | EC50 [2] | EC50 (EC50 (μM) "A", diastereomer A) | EC50 (EC50 (μM) "B", diastereomer B)
1 | CSCC[C@H](NC(=O)CN1C(=O)C(N(C)C(=O)[C@@H](N)CS)N=C(c2ccccc2)c2ccccc21)C(N)=O (stereo partly drawn) [compound 33, N-[[3-[(2-amino-3-mercapto-1-oxopropyl)methylamino]-2,3-dihydro-2-oxo-5phenyl-1H-1,4-benzodiazepin-1-yl]acetyl]-L-methionine amide] | 2.2 µM | 0.019 µM |  | 
2 | C[C@H](NC(=O)CN1C(=O)C(N(C)C(=O)[C@@H](N)CS)N=C(c2ccccc2)c2ccccc21)C(=O)O (stereo partly drawn) [compound 35, N-[[3-[(2-amino-3-mercapto-1-oxopropyl)methylamino]-2,3dihydro-2-oxo-5-phenyl-1H-1,4-benzodiazepin-1-yl]acetyl]-L-alanine] | > 10 µM | 0.022 µM |  | 
3 | CN(C(=O)[C@@H](N)CS)C1N=C(c2ccccc2)c2ccccc2N(CC(=O)N2CCC[C@H]2C(=O)O)C1=O (stereo partly drawn) [compound 36, N-[[3-[(2-amino-3-mercapto-1-oxopropyl)methylamino]-2,3-dihydro-2-oxo-5-phenyl-1H-1,4-benzodiazepin-1-yl]acetyl]-L-proline] | > 10 µM | 0.048 µM |  | 
4 | CCOC(=O)[C@H](CCSC)NC(=O)CN1C(=O)C(N(C)C(=O)[C@@H](N)CS)N=C(c2ccccc2)c2ccccc21 (some centres unmarked) [compound 39] | 8 µM | 0.11 µM |  | 
5 | CSCC[C@H](NC(=O)CN1C(=O)C(N(C)C(=O)[C@@H](N)CS)N=C(c2ccccc2)c2ccccc21)C(=O)OC1CCCCC1 (some centres unmarked) [compound 41] | 4.2 µM | 0.074 µM |  | 
6 | CCN[C@@H](CS)C(=O)N(C)C1N=C(c2ccccc2)c2ccccc2N(CC(=O)N[C@@H](CCSC)C(=O)O)C1=O (stereo partly drawn) [compound 42, N-[[3-[(2-ethylamino-3-mercapto-1-oxopropyl)methylamino]-2,3-dihydro-2-oxo-5-phenyl-1H-1,4-benzodiazepin-1-yl]acetyl]-L-methionine] | 0.58 µM | 0.018 µM |  | 
7 | CN(C(=O)[C@@H](N)CS)C1N=C(c2ccccc2)c2ccccc2N(CC(=O)N[C@@H](CS)C(=O)O)C1=O (stereo partly drawn) [compound 44, N-[[3-[(2-Amino-3-mercapto-1-oxopropyl)methylamino]-2,3-dihydro-2-oxo-5phenyl-1H-1,4-benzodiazepin-1-yl]acetyl]-L-cysteine] | 3 µM | 0.0045 µM |  | 
8 | CSCC[C@H](NC(=O)CN1C(=O)C(N(C)C(=O)[C@@H](N)CO)N=C(c2ccccc2)c2ccccc21)C(=O)O (stereo partly drawn) [compound 45, N-[[3-[(2-amino-3-hydroxy-1-oxopropyl)methylamino]-2,3-dihydro-2-oxo-5-phenyl-1H-1,4-benzodiazepin-1-yl]acetyl]-L-methionine] | > 10 µM | > 10 µM |  | 
9 | CSCC[C@H](NC(=O)CN1C(=O)C(N(C)C(=O)[C@@H](N)CS)N=C(c2ccccc2)c2ccccc21)c1nnn[nH]1 (stereo partly drawn) [compound 47, N-[[3-[(2-amino-3-mercapto-1-oxopropyl)methylamino]-2,3-dihydro-2-oxo-5-phenyl-1H-1,4-benzodiazepin-1-yl]acetyl]-L-methionine tetrazole] |  |  | 0.044 µM | 0.0046 µM
10 | CSCC[C@H](NC(=O)CCN1C(=O)C(N(C)C(=O)[C@@H](N)CS)N=C(c2ccccc2)c2ccccc21)C(=O)O (some centres unmarked) [compound 48] | 2.5 µM | 0.004 µM |  | 
11 | CSCC[C@](C)(NC(=O)CN1C(=O)C(N(C)C(=O)[C@@H](N)CS)N=C(c2ccccc2)c2ccccc21)C(=O)O (stereo partly drawn) [compound 49, N-[[3-[(2-amino-3-mercapto-1-oxopropyl)methylamino]-2,3-dihydro-2-oxo-5-phenyl-1H-1,4-benzodiazepin-1-yl]acetyl]-(α-methyl)-methionine] | 0.74 µM | 0.006 µM |  | 
12 | CC(C)[C@H](NC(=O)CN1C(=O)C(N(C)C(=O)[C@@H](N)CS)N=C(c2ccccc2)c2ccccc21)C(=O)O (stereo partly drawn) [compound 50, N-[[3-[(2-amino-3-mercapto-1-oxopropyl)methylamino]-2,3-dihydro-2-oxo-5-phenyl-1H-1,4benzodiazepin-1-yl]acetyl]-L-valine] | > 3 µM | 0.0008 µM |  | 
13 | C[C@@H](O)[C@H](NC(=O)CN1C(=O)C(N(C)C(=O)[C@@H](N)CS)N=C(c2ccccc2)c2ccccc21)C(=O)O (stereo partly drawn) [compound 51, N-[[3-[(2-amino-3-mercapto-1-oxopropyl)methylamino]-2,3-dihydro-2-oxo-5-phenyl-1H-1,4-benzodiazepin-1-yl]acetyl]-L-threonine] | > 3 µM | 0.0017 µM |  | 
14 | CN(C(=O)[C@@H](N)CS)C1N=C(c2ccccc2)c2ccccc2N(CC(=O)N[C@@H](CCC(N)=O)C(=O)O)C1=O (stereo partly drawn) [compound 52, N-[[3-[(2-amino-3-mercapto-1-oxopropyl)methylamino]-2,3-dihydro-2-oxo-5-phenyl-1H-1,4-benzodiazepin-1-yl]acetyl]-L-glutamine] | > 3 µM | 0.0018 µM |  | 
15 | CN(C(=O)[C@@H](N)CS)C1N=C(c2ccccc2)c2ccccc2N(CC(=O)NCC(=O)O)C1=O (some centres unmarked) [compound 53, N-[[3-[(2-amino-3-mercapto-1-oxopropyl)methylamino]-2,3-dihydro-2-oxo-5-phenyl-1H-1,4-benzodiazepin-1-yl]acetyl]-glycine] | > 3 µM | 0.0004 µM |  | 
16 | CN(C(=O)[C@@H](N)CS)C1N=C(c2ccccc2)c2ccccc2N(CC(=O)N[C@@H](Cc2ccc(O)cc2)C(=O)O)C1=O (stereo partly drawn) [compound 54, N-[[3-[(2-amino-3-mercapto-1-oxopropyl)methylamino]-2,3-dihydro-2-oxo-5-phenyl-1H-1,4-benzodiazepin-1-yl]acetyl]-L-tyrosine] | 1.5 µM | 0.004 µM |  | 
17 | CN(C(=O)[C@@H](N)CS)C1N=C(c2ccccc2)c2ccccc2N(CC(=O)N[C@@H](CC2CCCCC2)C(=O)O)C1=O (stereo partly drawn) [compound 57, N-[[3-[(2-amino-3-mercapto-1-oxopropyl)methylamino]-2,3-dihydro-2-oxo-5-phenyl-1H-1,4-benzodiazepin-1-yl]acetyl]-(β-cyclohexyl)-L-alanine] | 2 µM | 0.0015 µM |  | 
18 | CN(C(=O)[C@@H](N)CS)C1N=C(c2ccccc2)c2ccccc2N(CC(=O)N[C@H](C(=O)O)C2CCCCC2)C1=O (stereo partly drawn) [compound 58, N-[[3-[(2-amino-3-mercapto-1-oxopropyl)methylamino]-2,3-dihydro-2-oxo-5-phenyl-1H-1,4-benzodiazepin-1-yl]acetyl]-(α-cyclohexyl)-glycine] | 1.1 µM | 0.0006 µM |  | 
19 | CN(C(=O)[C@@H](N)CS)C1N=C(c2ccccc2)c2ccccc2N(CC(=O)N[C@@H](CCc2ccccc2)C(=O)O)C1=O (stereo partly drawn) [compound 59, N-[[3-[-(2-amino-3-mercapto-1-oxopropyl)methylamino]-2,3-dihydro-2-oxo-5-phenyl-1H-1,4-benzodiazepin-1-yl]acetyl]-L-homo-phenylalanine] | 1.1 µM | 0.0012 µM |  | 
20 | CN(C(=O)[C@@H](N)CS)C1N=C(c2ccccc2)c2ccccc2N(CC(=O)N[C@@H](Cc2ccc(F)cc2)C(=O)O)C1=O (some centres unmarked) [compound 60] | 0.94 µM | 0.0005 µM |  | 
21 | CN(C(=O)[C@@H](N)CS)C1N=C(c2ccccc2)c2ccccc2N(CC(=O)N[C@@H](Cc2ccc(-c3ccccc3)cc2)C(=O)O)C1=O (stereo partly drawn) [compound 61, N-[[3-[(2-amino-3-mercapto-1-oxopropyl)methylamino]-2,3-dihydro-2-oxo-5-phenyl-1H-1,4-benzodiazepin-1-yl]acetyl]-(β-biphenyl)-L-alanine] | 1.7 µM | 0.0035 µM |  | 
22 | CCCC[C@H](NC(=O)CN1C(=O)C(N(C)C(=O)[C@@H](N)CS)N=C(c2ccccc2)c2ccccc21)C(=O)O (stereo partly drawn) [compound 62, N-[[3-[(2-amino-3-mercapto-1-oxopropyl)methylamino]-2,3-dihydro-2-oxo-5-phenyl-1H-1,4benzodiazepin-1-yl]acetyl]-L-norleucine] | 0.72 µM | 0.0005 µM |  | 
23 | CSCC[C@@H](C(=O)O)N(C)C(=O)CN1C(=O)C(NC(=O)[C@@H](N)CS)N=C(c2ccccc2)c2ccccc21 (some centres unmarked) [compound 63] | > 10 µM | 2 µM |  | 
24 | CSCC[C@@H](C(=O)O)N(C)C(=O)CN1C(=O)C(N(C)C(=O)[C@@H](N)CS)N=C(c2ccccc2)c2ccccc21 (stereo partly drawn) [compound 64, N-[[3-[(2-amino-3-mercapto-1-oxopropyl)methylamino]-2,3-dihydro-2-oxo-5-phenyl-1H-1,4-benzodiazepin-1-yl]acetyl]-(N-methyl)-L-methionine] | 0.26 µM | 0.002 µM |  | 
25 | CN(CC(=O)O)C(=O)CN1C(=O)C(N(C)C(=O)[C@@H](N)CS)N=C(c2ccccc2)c2ccccc21 (some centres unmarked) [compound 65, N-[[3-[(2-amino-3-mercapto-1-oxopropyl)methylamino]-2,3-dihydro-2-oxo-5-phenyl-1H-1,4-benzodiazepin-1-yl]acetyl]-(N-methyl)-glycine] | > 3 µM | 0.0038 µM |  | 
26 | CN(C(=O)[C@@H](N)CS)C1N=C(c2ccccc2)c2ccccc2N(CC(=O)N(CC(=O)O)Cc2ccccc2)C1=O (some centres unmarked) [compound 66] | 2.4 µM | 0.0006 µM |  | 
27 | CSCC[C@H](NC(=O)CN1C(=O)C(N(C)C(=O)[C@@H](N)CS)N=C(c2ccccc2)c2cc(Cl)ccc21)C(=O)O (stereo partly drawn) [compound 67, N-[[3-[(2-amino-3-mercapto-1-oxopropyl)methylamino]-2,3-dihydro-2-oxo-5-phenyl-7-chloro-1H-1,4-benzodiazepin-1-yl]acetyl]-L-methionine] | 0.31 µM | 0.0004 µM |  | 
28 | CN(C(=O)[C@@H](N)CS)C1N=C(c2ccccc2)c2cc(Cl)ccc2N(CC(=O)N[C@@H](Cc2ccccc2)C(=O)O)C1=O (some centres unmarked) [compound 68] | 0.14 µM | 0.0016 µM |  | 
